Activity calls are given as the source filed them. The calls are words filed in the database; no cut-off is given here.
How the values were obtained:
[1] = Toxicity in C57BL/6 mouse xenografted with […] GL261 cells assessed as cell necrosis in spleen at 100 mg/kg, IG treated for 21 days by hematoxylin-eosin staining based microscopy assay; type: organism-based; conditions: in vivo, po, 504 h, time 21 day
[2] = Ratio of brain to plasma concentration in Sprague-Dawley rat at 5 mg/kg, iv measured after 20 mins; type: ADME, organism-based
[3] = Clearance in Sprague-Dawley rat at 20 mg/kg, po measured upto 72 hrs by (LC-MS)/MS analysis; type: ADME, organism-based; conditions: in vivo
[4] = system: U-87MG ATCC; assay: Effect on total ERK1/2 level in human U-87 MG cells at 0.25 to 2 uM incubated for 48 hrs by Western blot analysis; type: functional, cell-based; conditions: dose 0.25-2 µM
[5] = Volume of distribution in Sprague-Dawley rat at 4 mg/kg, iv measured upto 72 hrs by (LC-MS)/MS analysis; type: ADME, organism-based; conditions: in vivo
[6] = system: U-87 MG; assay: In vitro immunoregulatory effect in IFN-gamma stimulated human U-87 MG cells co-cultured with PHA-P stimulated with human Jurkat T cell assessed as cytotoxicity by measuring cell viability at 0.5 uM incubated for 48 hrs by CCK-8 assay relative to control; type: functional, U-87MG ATCC
[7] = system: U-87 MG; assay: Induction of cell cycle arrest in human U-87 MG cells assessed as accumulation of cells at G0/G1 phase at 1 uM incubated for 48 hrs by flow cytometry (reference value: 60.51%); type: functional, U-87MG ATCC
[8] = system: U-87 MG; assay: In vitro immunoregulatory effect in IFN-gamma stimulated human U-87 MG cells co-cultured with PHA-P stimulated with human Jurkat T cell assessed as cytotoxicity by measuring cell viability incubated for 48 hrs by CCK-8 assay relative to control; type: functional, cell-based; conditions: U-87MG ATCC, dose 0.0625-0.5 µM
[9] = Toxicity in C57BL/6 mouse xenografted with […] GL261 cells assessed as cell necrosis in liver at 100 mg/kg, IG treated for 21 days by hematoxylin-eosin staining based microscopy assay; type: organism-based; conditions: in vivo, po, 504 h, time 21 day
[10] = cells; conditions: Homo sapiens, U87MG Human EGFR vIII, 72 h
Description: Antiproliferative activity against human U87vIII cells expressing EGFRvIII incubated for 72 hrs by MTT assay

[11] = AUC (0 to t) in Sprague-Dawley rat at 20 mg/kg, po measured upto 72 hrs by (LC-MS)/MS analysis; type: ADME, organism-based; conditions: in vivo
[12] = cells; conditions: GL261, 72 h
Description: Antiproliferative activity against human GL261 cells incubated for 72 hrs by MTT assay

[13] = AUC (0 to infinity) in Sprague-Dawley rat at 4 mg/kg, iv measured upto 72 hrs by (LC-MS)/MS analysis; type: ADME, organism-based; conditions: in vivo
[14] = MRT (0 to infinity) in Sprague-Dawley rat at 4 mg/kg, iv measured upto 72 hrs by (LC-MS)/MS analysis; type: ADME, organism-based; conditions: in vivo
[15] = AUC (0 to t) in Sprague-Dawley rat at 4 mg/kg, iv measured upto 72 hrs by (LC-MS)/MS analysis; type: ADME, organism-based; conditions: in vivo
[16] = MRT (0 to t) in Sprague-Dawley rat at 20 mg/kg, po measured upto 72 hrs by (LC-MS)/MS analysis; type: ADME, organism-based; conditions: in vivo
[17] = Toxicity in C57BL/6 mouse xenografted with […] GL261 cells assessed as cell necrosis in heart at 100 mg/kg, IG treated for 21 days by hematoxylin-eosin staining based microscopy assay; type: organism-based; conditions: in vivo, po, 504 h, time 21 day
[18] = Toxicity in C57BL/6 mouse xenografted with […] GL261 cells assessed as adverse effect at 50 to 100 mg/kg, IG treated for 21 days; type: organism-based; conditions: in vivo, po, 504 h, dose 50-100 mg/kg, time 21 day
[19] = In vivo antitumor activity against […] GL261 cells xenografted in C57BL/6 mouse assessed as decrease in tumor volume at 100 mg/kg, IG treated for 21 days relative to control; type: functional; set-up: scale not given: the % may be the effect or the level left; conditions: time 21 day
[20] = system: U-87 MG; assay: Cytotoxicity activity against human U-87 MG cells assessed as cell viability at 0.5 uM incubated for 48 hrs by CCK-8 assay relative to control; type: functional, U-87MG ATCC; conditions: read-out: Activity
[21] = In vivo antitumor activity against […] GL261 cells xenografted in C57BL/6 mouse assessed as decrease in EGFR phosphorylation in tumor tissue at 100 mg/kg, IG treated for 21 days relative to control; type: functional; set-up: scale not given: the % may be the effect or the level left; conditions: time 21 day
[22] = In vivo antitumor activity against […] GL261 cells xenografted in C57BL/6 mouse assessed as tumor growth inhibition (tumor volume decrease) at 100 mg/kg, IG treated for 21 days relative to control; type: functional; conditions: GL261, po, 504 h, time 21 day, read-out: TGI
[23] = Tmax in Sprague-Dawley rat at 20 mg/kg, po measured upto 72 hrs by (LC-MS)/MS analysis; type: ADME, organism-based; conditions: in vivo
[24] = Oral bioavailability in Sprague-Dawley rat at 20 mg/kg measured upto 72 hrs by (LC-MS)/MS analysis; type: ADME, organism-based; conditions: in vivo
[25] = MRT (0 to t) in Sprague-Dawley rat at 4 mg/kg, iv measured upto 72 hrs by (LC-MS)/MS analysis; type: ADME, organism-based; conditions: in vivo
[26] = Clearance in Sprague-Dawley rat at 4 mg/kg, iv measured upto 72 hrs by (LC-MS)/MS analysis; type: ADME, organism-based; conditions: in vivo
[27] = Cmax in Sprague-Dawley rat at 4 mg/kg, iv measured upto 72 hrs by (LC-MS)/MS analysis; type: ADME, organism-based; conditions: in vivo
[28] = system: U-87 MG; assay: Induction of cell cycle arrest in human U-87 MG cells assessed as decrease in accumulation of cells at S phase at 0.5 uM incubated for 48 hrs by flow cytometry (reference value: 30.36%); type: functional, U-87MG ATCC; set-up: scale not given: the % may be the effect or the level left
[29] = In vivo antitumor activity against […] GL261 cells xenografted in C57BL/6 mouse assessed as decrease in tumor weight at 100 mg/kg, IG treated for 21 days relative to control; type: functional; set-up: scale not given: the % may be the effect or the level left; conditions: time 21 day
[30] = In vivo antitumor activity against […] GL261 cells xenografted in C57BL/6 mouse assessed as tumor growth inhibition (tumor weight decrease) at 50 mg/kg, IG treated for 21 days relative to control; type: functional; conditions: GL261, po, 504 h, time 21 day, read-out: TGI
[31] = In vivo antitumor activity against […] GL261 cells xenografted in C57BL/6 mouse assessed as tumor growth inhibition (tumor volume decrease) at 50 mg/kg, IG treated for 21 days relative to control; type: functional; conditions: GL261, po, 504 h, time 21 day, read-out: TGI
[32] = system: GL261; assay: In vivo antitumor activity against […] GL261 cells xenografted in intragastrically dosed C57BL/6 mouse assessed as decrease in tumor size treated for 21 days relative to control; type: functional, organism-based; conditions: route ig, time 21.0 day
[33] = target: Programmed cell death 1 ligand 1 (Mus musculus) (UniProt Q9EP73); assay: (§1) Binding affinity to recombinant mouse His-tagged PD-L1 expressed in HEK293 cells by SPR analysis
[34] = target: Programmed cell death 1 ligand 1 (Mus musculus, UniProt Q9EP73); assay: as §1
[35] = system: U-87 MG; assay: Induction of cell cycle arrest in human U-87 MG cells assessed as accumulation of cells at G0/G1 phase at 0.5 uM incubated for 48 hrs by flow cytometry (reference value: 60.51%); type: functional, U-87MG ATCC
[36] = system: Glioblastoma cell line; assay: Antitumor immunity against glioblastoma bearing C57BL/6 mouse model assessed as tumor infiltrating lymphocytes by measuring increase in CD3+CD8+T cells at 100 mg/kg, IG (reference value: 3.44%); type: functional
[37] = Half life in Sprague-Dawley rat at 20 mg/kg, po measured upto 72 hrs by (LC-MS)/MS analysis; type: ADME, organism-based; conditions: in vivo

Chain of Programmed cell death 1 ligand 1 (Q9EP73 whole entry): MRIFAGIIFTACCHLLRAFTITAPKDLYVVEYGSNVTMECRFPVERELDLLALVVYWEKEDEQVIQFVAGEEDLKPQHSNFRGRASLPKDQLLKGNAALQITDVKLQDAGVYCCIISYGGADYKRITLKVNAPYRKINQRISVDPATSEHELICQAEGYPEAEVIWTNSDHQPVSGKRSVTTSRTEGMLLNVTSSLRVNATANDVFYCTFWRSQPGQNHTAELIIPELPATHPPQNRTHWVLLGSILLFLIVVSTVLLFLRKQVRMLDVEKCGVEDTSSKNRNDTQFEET
Chain of Programmed cell death 1 ligand 1 (Mus musculus) (Q9EP73 whole entry): as above

BPR [2]: 10% | CL/F [3]: 107 mL/min/kg | Vd [5]: 13.7 L/kg | IC50 [10]: 280 nM | AUC(0-t) at 72 h [11]: 3150 ng·h/mL | IC50 [12]: 1190 nM | AUC(0-inf) [13]: 2910 ng·h/mL | MRT inf [14]: 12.5 h | AUC(0-t) at 72 h [15]: 2830 ng·h/mL | MRT last at 72 h [16]: 17.5 h | Tmax [23]: 3.6 h | bioavailability [24]: 22.2% | MRT last at 72 h [25]: 12.7 h | clearance [26]: 25 mL/min/kg | Cmax [27]: 326 ng/mL | half-life [37]: 13 h
SMILES: COc1cc2ncnc(Nc3cccc(Cl)c3F)c2cc1OCCCCNCc1c(OC)cc(OCc2cccc(-c3ccccc3)c2C)cc1OC
Activity [1]: Non-Toxic | Activity [4]: inactive | Activity [6]: 73.8% | Activity [7]: 69.48% | Activity [8]: Dose-Dependent Effect | Activity [9]: Non-Toxic | Activity [17]: Non-Toxic | Activity [18]: Non-Toxic | Activity [19]: 89.7% | viability at 0.5 µM [20]: 96.9% | Activity [21]: ~50% | inhibition in vivo at 100 mg/kg [22]: 89.4% | Activity [28]: 28.36% | Activity [29]: 92% | inhibition in vivo at 50 mg/kg [30]: 61.4% | inhibition in vivo at 50 mg/kg [31]: 55.8% | Activity [32]: Dose-Dependent Effect | Activity [33]: Dose-Dependent Effect | Kd [34]: 520 nM | Activity [35]: 63.57% | Activity [36]: 14.6%

— ChEMBL document CHEMBL5506049, “Discovery of Novel Small-Molecule-Based Potential PD-L1/EGFR Dual Inhibitors with High Druggability for Glioblastoma Immunotherapy” (J Med Chem, 2024)
